Values joined by “and” are separate entries in the source; they are usually repeats but may differ in a detail not shown here. Equal entries are not always repeated. Records with an inconclusive call do not appear.
Test system: BDF1 mice, colon carcinoma 38 sc, T/C %
Experiment: NCI In Vivo Anticancer Drug Screen. Data for tumor model Colon Carcinoma 38 (subcutaneous) in B6D2F1 (BDF1) mice
Settings: endpoint: median tumor weight (est.), higher = larger tumour
How it was run: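 Transplantable tumor in mice; compound-treated vs vehicle-dosed controls. Measured survival or tumor size; value = T ÷ C.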

[1] = dose: 200.0 mg/kg/injection, schedule: Q07DX002 (ip), vehicle: Klucel (hydroxypropylcellulose) (HPC)
[2] = dose: 100.0 mg/kg/injection, schedule: Q07DX002 (ip), vehicle: saline with Tween-80
[3] = dose: 25.0 mg/kg/injection, schedule: Q07DX002 (ip), vehicle: saline
[4] = dose: 50.0 mg/kg/injection, schedule: Q07DX002 (ip), vehicle: saline
[5] = dose: 12.5 mg/kg/injection, schedule: Q07DX002 (ip), vehicle: saline with Tween-80
[6] = dose: 25.0 mg/kg/injection, schedule: Q07DX002 (ip), vehicle: saline with Tween-80
[7] = dose: 50.0 mg/kg/injection, schedule: Q07DX002 (ip), vehicle: saline with Tween-80

C[C@@H]1C[C@H]2[C@@H]3CCC4=CC(=O)C=C[C@]4(C)[C@@]3(F)[C@@H](O)C[C@]2(C)[C@@]1(O)C(=O)CO
T/C (dose: 6.25 mg/kg/injection, schedule: Q07DX002 (ip), vehicle: Klucel (hydroxypropylcellulose) (HPC)): 156 % of control
T/C [1]: 53 % of control and 58 % of control
T/C (dose: 400.0 mg/kg/injection, schedule: Q07DX002 (ip), vehicle: Klucel (hydroxypropylcellulose) (HPC)): 25 % of control

O=C(O)[C@H](Cc1ccccc1)N1C(=O)c2ccccc2C1=O
T/C (dose: 50.0 mg/kg/injection, schedule: Q07DX002 (ip), vehicle: DMSO): 98 % of control
T/C (dose: 100.0 mg/kg/injection, schedule: Q07DX002 (ip), vehicle: DMSO): 108 % of control

CC1=C(/C=C/C(C)=C/C=C/C(C)=C/C=O)C(C)(C)CCC1
T/C [2]: 116 % of control

COc1nc(=O)n(C2C=CC(=O)O2)cc1F (configuration not stated)
T/C (dose: 12.5 mg/kg/injection, schedule: Q07DX002 (ip), vehicle: saline): 117 % of control
T/C [3]: 113 % of control
T/C [4]: 109 % of control

CCSC(=O)N1c2ccc(OC)cc2C=CC1C#N (configuration not stated)
T/C [5]: 70 % of control
T/C [6]: 81 % of control
T/C [2]: 107 % of control
T/C (dose: 175.0 mg/kg/injection, schedule: Q07DX002 (ip), vehicle: saline with Tween-80): 97 % of control
T/C (dose: 350.0 mg/kg/injection, schedule: Q07DX002 (ip), vehicle: saline with Tween-80): 115 % of control and 100 % of control
T/C (dose: 400.0 mg/kg/injection, schedule: Q07DX002 (ip), vehicle: saline with Tween-80): 61 % of control
T/C (dose: 1400.0 mg/kg/injection, schedule: Q07DX002 (ip), vehicle: saline with Tween-80): 75 % of control and 89 % of control

C=C[Si]12OCCN(CCO1)CCO2
T/C (dose: 25.0 mg/kg/injection, schedule: Q07DX002 (ip), vehicle: Klucel (hydroxypropylcellulose) (HPC)): 73 % of control and 90 % of control
T/C (dose: 100.0 mg/kg/injection, schedule: Q07DX002 (ip), vehicle: Klucel (hydroxypropylcellulose) (HPC)): 29 % of control
T/C [1]: 93 % of control and 97 % of control

ClC(Cl)=C(Cl)Cl
T/C (dose: 28.0 mg/kg/injection, schedule: Q07DX002 (ip), vehicle: saline with Tween-80): 88 % of control and 103 % of control
T/C (dose: 50.0 mg/kg/injection, schedule: Q07DX002 (ip), vehicle: other): 79 % of control
T/C (dose: 56.0 mg/kg/injection, schedule: Q07DX002 (ip), vehicle: saline with Tween-80): 79 % of control and 100 % of control
T/C (dose: 100.0 mg/kg/injection, schedule: Q07DX002 (ip), vehicle: other): 109 % of control and 112 % of control
T/C (dose: 112.0 mg/kg/injection, schedule: Q07DX002 (ip), vehicle: saline with Tween-80): 52 % of control
T/C (dose: 400.0 mg/kg/injection, schedule: Q07DX002 (ip), vehicle: other): 91 % of control
T/C (dose: 800.0 mg/kg/injection, schedule: Q07DX002 (ip), vehicle: other): 71 % of control

COC(=O)CC(N)C(=O)O (configuration not stated)
T/C [3]: 95 % of control
T/C [4]: 70 % of control
T/C (dose: 100.0 mg/kg/injection, schedule: Q07DX002 (ip), vehicle: saline): 86 % of control
T/C (dose: 200.0 mg/kg/injection, schedule: Q07DX002 (ip), vehicle: saline): 61 % of control
T/C (dose: 400.0 mg/kg/injection, schedule: Q07DX002 (ip), vehicle: saline): 50 % of control

[N-]=[N+]=CC(=O)CCC(N)C(=O)O (configuration not stated)
T/C (dose: 0.78 mg/kg/injection, schedule: Q07DX003 (ip), vehicle: saline): 57 % of control
T/C (dose: 1.56 mg/kg/injection, schedule: Q07DX003 (ip), vehicle: saline): 48 % of control
T/C (dose: 3.13 mg/kg/injection, schedule: Q07DX003 (ip), vehicle: saline): 73 % of control
T/C (dose: 50.0 mg/kg/injection, schedule: Q07DX003 (ip), vehicle: saline): 10 % of control

Cc1cc2c(c3oc(C4(C)OC4C4OC4C)cc(=O)c13)C(=O)c1c(O)c(C3CC(C)(N(C)C)C(O)C(C)O3)cc(C3CC(N(C)C)C(O)C(C)O3)c1C2=O (configuration not stated)
T/C (dose: 3.75 micrograms/kg/injection, schedule: Q07DX002 (ip), vehicle: Klucel (hydroxypropylcellulose) (HPC)): 62 % of control
T/C (dose: 7.5 micrograms/kg/injection, schedule: Q07DX002 (ip), vehicle: Klucel (hydroxypropylcellulose) (HPC)): 90 % of control
T/C (dose: 15.0 micrograms/kg/injection, schedule: Q07DX002 (ip), vehicle: Klucel (hydroxypropylcellulose) (HPC)): 99 % of control
T/C (dose: 30.0 micrograms/kg/injection, schedule: Q07DX002 (ip), vehicle: Klucel (hydroxypropylcellulose) (HPC)): 57 % of control

COc1cc(C(=O)N/N=C/c2cccc([N+](=O)[O-])c2)cc(OC)c1OC
T/C [6]: 93 % of control
T/C [7]: 124 % of control
T/C [2]: 107 % of control
T/C (dose: 200.0 mg/kg/injection, schedule: Q07DX002 (ip), vehicle: saline with Tween-80): 101 % of control

O=c1s[se]c2ccccc12
T/C (dose: 3.12 mg/kg/injection, schedule: Q07DX002 (ip), vehicle: saline with Tween-80): 73 % of control
T/C [5]: 90 % of control
T/C [6]: 83 % of control
T/C [7]: 117 % of control

Reference: PubChem BioAssay AID212 (DTP/NCI, 2004)
